# Test results: patent publication US12084472B2 (Ardelyx, Inc., priority 2015, dated 2024)
# Target: T1, human TGR5 (Homo sapiens, UniProt Q8TDU6)
# T1 construct: expressed in transfected cells; host or cells: HEK293
# T1 sequence (Q8TDU6 1-330): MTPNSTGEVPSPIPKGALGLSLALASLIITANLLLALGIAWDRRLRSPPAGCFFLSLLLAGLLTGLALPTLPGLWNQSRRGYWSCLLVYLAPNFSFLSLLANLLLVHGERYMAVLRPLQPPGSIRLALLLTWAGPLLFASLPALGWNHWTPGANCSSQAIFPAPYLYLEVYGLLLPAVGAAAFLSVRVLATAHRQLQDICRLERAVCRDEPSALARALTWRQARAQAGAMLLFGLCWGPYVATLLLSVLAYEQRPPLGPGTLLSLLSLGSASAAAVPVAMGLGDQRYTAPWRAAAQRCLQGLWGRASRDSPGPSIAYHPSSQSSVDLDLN
# Test: Cell-based TGR5 assay (cAMP generation, HTRF)
# Conditions: HEK293 cells stably transfected with human TGR5; cAMP by HTRF; 30 minutes at 37° C.; read-out: pEC50 Human TGR5 (converted)
# Summary of the method: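 Read-out was HTRF detection of cAMP, converted to concentration via a standard curve and fitted (3-parameter logistic) for pEC50 and maximal response. Agonist stimulation used HEK293 cells stably transfected with human TGR5, incubated 30 min at 37° C in IBMX-containing buffer at 0.05 nM to 10 μM compound.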
row,SMILES,EC50 [nM]
1,"O=C(NCCC1CCN(S(=O)(=O)c2ccc(Cl)c(COC3(c4cnccc4-c4ccccc4OC4CC4)CC3)c2)CC1)NC[C@H](O)[C@@H](O)[C@H](O)[C@H](O)CO [Compound I-417, 1-(2-{1-[4-chloro-3-({1-[4-(2-cyclopropoxyphenyl)pyridin-3-yl]cyclopropoxy}methyl)benzenesulfonyl]piperidin-4-yl}ethyl)-3-[(2S,3R,4R,5R)-2,3,4,5,6-pentahydroxyhexyl]urea]",< 100
2,"O=C(NC[C@H](O)[C@@H](O)[C@H](O)[C@H](O)CO)N[C@H]1CC[C@@H](NS(=O)(=O)c2ccc(Cl)c(COC3(c4cnccc4-c4ccccc4OC4CC4)CC3)c2)CC1 [Compound I-419, 3-[(2S,3R,4R,5R)-2,3,4,5,6-pentahydroxyhexyl]-1-[(1s,4s)-4-[4-chloro-3-({1-[4-(2-cyclopropoxyphenyl)pyridin-3-yl]cyclopropoxy}methyl)benzenesulfonamido]cyclohexyl]urea]",< 100
3,"O=C(NCCC1CN(S(=O)(=O)c2ccc(Cl)c(COC3(c4cnccc4-c4ccccc4OC4CC4)CC3)c2)C1)NC[C@H](O)[C@@H](O)[C@H](O)[C@H](O)CO [Compound I-421, 1-(2-{1-[4-chloro-3-({1-[4-(2-cyclopropoxyphenyl)pyridin-3-yl]cyclopropoxy}methyl)benzenesulfonyl]azetidin-3-yl}ethyl)-3-[(2S,3R,4R,5R)-2,3,4,5,6-pentahydroxyhexyl]urea]",< 100
4,"O=C(NC[C@H](O)[C@@H](O)[C@H](O)[C@H](O)CO)NC1CCC(CCNS(=O)(=O)c2ccc(Cl)c(COC3(c4cnccc4-c4ccccc4OC4CC4)CC3)c2)CC1 (stereo partly drawn) [Compound I-422, 1-(4-{2-[4-chloro-3-({1-[4-(2-cyclopropoxyphenyl)pyridin-3-yl]cyclopropoxy}methyl)benzenesulfonamido]ethyl}cyclohexyl)-3-[(2S,3R,4R,5R)-2,3,4,5,6-pentahydroxyhexyl]urea]",< 100
5,"O=C(NCCN1CCN(S(=O)(=O)c2ccc(Cl)c(COC3(c4cnccc4-c4ccccc4OC4CC4)CC3)c2)CC1)NC[C@H](O)[C@@H](O)[C@H](O)[C@H](O)CO [Compound I-425, 1-(2-{4-[4-chloro-3-({1-[4-(2-cyclopropoxyphenyl)pyridin-3-yl]cyclopropoxy}methyl)benzenesulfonyl]piperazin-1-yl}ethyl)-3-[(2S,3R,4R,5R)-2,3,4,5,6-pentahydroxyhexyl]urea]",126 to 1000
6,"O=C(NC[C@H](O)[C@@H](O)[C@H](O)[C@H](O)CO)NC1CN(S(=O)(=O)c2ccc(Cl)c(COC3(c4cnccc4-c4ccccc4OC4CC4)CC3)c2)C1 [Compound I-427, 1-{1-[4-chloro-3-({1-[4-(2-cyclopropoxyphenyl)pyridin-3-yl]cyclopropoxy}methyl)benzenesulfonyl]azetidin-3-yl}-3-[(2S,3R,4R,5R)-2,3,4,5,6-pentahydroxyhexyl]urea]",126 to 1000
7,"O=C(NC[C@H](O)[C@@H](O)[C@H](O)[C@H](O)CO)NC1CCN(S(=O)(=O)c2ccc(Cl)c(COC3(c4cnccc4-c4ccccc4OC4CC4)CC3)c2)C1 (stereo partly drawn) [Compound I-429, 1-{l-[4-chloro-3-({1-[4-(2-cyclopropoxyphenyl)pyridin-3-yl]cyclopropoxy}methyl)benzenesulfonyl]pyrrolidin-3-yl}-3-[(2S,3R,4R,5R)-2,3,4,5,6-pentahydroxyhexyl]urea]",126 to 1000
8,"O=C(NC[C@H](O)[C@@H](O)[C@H](O)[C@H](O)CO)NC1CC2(C1)CN(S(=O)(=O)c1ccc(Cl)c(COC3(c4cnccc4-c4ccccc4OC4CC4)CC3)c1)C2 [Compound I-430, 1-{2-[4-chloro-3-({1-[4-(2-cyclopropoxyphenyl)pyridin-3-yl]cyclopropoxy}methyl)benzenesulfonyl]-2-azaspiro[3.3]heptan-6-yl}-3-[(2S,3R,4R,5R)-2,3,4,5,6-pentahydroxyhexyl]urea]",126 to 1000
9,"O=C(CCCCCNS(=O)(=O)c1ccc(Cl)c(COC2(c3cnccc3-c3ccccc3OC3CC3)CC2)c1)NC[C@H](O)[C@@H](O)[C@H](O)[C@H](O)CO [Compound I-431, 6-[4-chloro-3-({1-[4-(2-cyclopropoxyphenyl)pyridin-3-yl]cyclopropoxy}methyl)benzenesulfonamido]-N-[(2S,3R,4R,5R)-2,3,4,5,6-pentahydroxyhexyl]hexanamide]",< 100
10,"O=C(CCCCCCNS(=O)(=O)c1ccc(Cl)c(COC2(c3cnccc3-c3ccccc3OC3CC3)CC2)c1)NC[C@H](O)[C@@H](O)[C@H](O)[C@H](O)CO [Compound I-432, 7-[4-chloro-3-({1-[4-(2-cyclopropoxyphenyl)pyridin-3-yl]cyclopropoxy}methyl)benzenesulfonamido]-N-[(2S,3R,4R,5R)-2,3,4,5,6-pentahydroxyhexyl]heptanamide]",< 100

# More lines, now with the values ahead:
row,EC50 [nM],SMILES
1,< 100,"O=C(NC[C@H](O)[C@@H](O)[C@H](O)[C@H](O)CO)N[C@H]1CC[C@H](NS(=O)(=O)c2ccc(Cl)c(COC3(c4cnccc4-c4ccccc4OC4CC4)CC3)c2)CC1 [Compound I-418, 3-[(2S,3R,4R,5R)-2,3,4,5,6-pentahydroxyhexyl]-1-[(1r,4r)-4-[4-chloro-3-({l-[4-(2-cyclopropoxyphenyl)pyridin-3-yl]cyclopropoxy}methyl)benzenesulfonamido]cyclohexyl]urea]"
2,< 100,"O=C(NCC1CCN(S(=O)(=O)c2ccc(Cl)c(COC3(c4cnccc4-c4ccccc4OC4CC4)CC3)c2)C1)NC[C@H](O)[C@@H](O)[C@H](O)[C@H](O)CO (stereo partly drawn) [Compound I-420, 1-({1-[4-chloro-3-({1-[4-(2-cyclopropoxyphenyl)pyridin-3-yl]cyclopropoxy}methyl)benzenesulfonyl]pyrrolidin-3-yl}methyl)-3-[(2S,3R,4R,5R)-2,3,4,5,6-pentahydroxyhexyl]urea]"
3,126 to 1000,"O=C(NCCCN1CCN(S(=O)(=O)c2ccc(Cl)c(COC3(c4cnccc4-c4ccccc4OC4CC4)CC3)c2)CC1)NC[C@H](O)[C@@H](O)[C@H](O)[C@H](O)CO [Compound I-423, 1-(3-{4-[4-chloro-3-({1-[4-(2-cyclopropoxyphenyl)pyridin-3-yl]cyclopropoxy}methyl)benzenesulfonyl]piperazin-1-yl}propyl)-3-[(2S,3R,4R,5R)-2,3,4,5,6-pentahydroxyhexyl]urea]"
4,< 100,"O=C(NCC1CCN(S(=O)(=O)c2ccc(Cl)c(COC3(c4cnccc4-c4ccccc4OC4CC4)CC3)c2)CC1)NC[C@H](O)[C@@H](O)[C@H](O)[C@H](O)CO [Compound I-424, 1-({1-[4-chloro-3-({1-[4-(2-cyclopropoxyphenyl)pyridin-3-yl]cyclopropoxy}methyl)benzenesulfonyl]piperidin-4-yl}methyl)-3-[(2S,3R,4R,5R)-2,3,4,5,6-pentahydroxyhexyl]urea]"
5,126 to 1000,"O=C(NC[C@H](O)[C@@H](O)[C@H](O)[C@H](O)CO)NC1CC2(CCN(S(=O)(=O)c3ccc(Cl)c(COC4(c5cnccc5-c5ccccc5OC5CC5)CC4)c3)CC2)C1 [Compound I-428, 1-{7-[4-chloro-3-({1-[4-(2-cyclopropoxyphenyl)pyridin-3-yl]cyclopropoxy}methyl)benzenesulfonyl]-7-azaspiro[3.5]nonan-2-yl}-3-[(2S,3R,4R,5R)-2,3,4,5,6-pentahydroxyhexyl]urea]"
